pEC50: −log10 of the molar value.
Biological target: mGluR4 (UniProt Q14833)
Test: mGluR4 potentiation assay: increase in response to an EC20 concentration of agonist (species not given)
Type: cell-based
Details: EC50 for potentiation of mGluR4; table does not state human or rat
In short: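 Human mGluR4 was expressed in CHO cells read with a Ca2+-sensitive dye; rat mGluR4 was co-expressed with GIRK in […] read by thallium flux. Potentiation is the rise over agonist-alone response, with EC50 and maximal potentiation from non-linear fits.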

pEC50	SMILES
6.96	[2H]C([2H])(C)n1nc(C)c2cc(Nc3n[nH]c4cccnc34)ccc21 [Example 124, N-(1-(ethyl-1,1-d2)-3-methyl-1H-indazol-5-yl)-1H-pyrazolo[4,3-b]pyridin-3-amine]
6.04	CC(C)n1cc2cc(Nc3n[nH]c4cccnc34)cc(Cl)c2n1 [Example 62, N-(7-chloro-2-isopropyl-2H-indazol-5-yl)-1H-pyrazolo[4,3-b]pyridin-3-amine]
< 5.00	CC(C)n1nc(Cl)c2cc(Nc3n[nH]c4cccnc34)ccc21 [Example 280, N-(3-chloro-1-isopropyl-1H-indazol-5-yl)-1H-pyrazolo[4,3-b]pyridin-3-amine]

Second part, the compound before the results:

SMILES	pEC50
Clc1cc(Nc2n[nH]c3cccnc23)cc2cn(CC3CCC3)nc12 [Example 66, N-(7-chloro-2-(cyclobutylmethyl)-2H-indazol-5-yl)-1H-pyrazolo[4,3-b]pyridin-3-amine]	6.93
Cc1cc(Cn2ncc3cc(Nc4n[nH]c5nccnc45)ccc32)no1 [Example 104, N-(1-((5-methylisoxazol-3-yl)methyl)-1H-indazol-5-yl)-1H-pyrazolo[3,4-b]pyrazin-3-amine]	7.08
Cc1cc(Nc2n[nH]c3cccnc23)cc2c1cnn2C [Example 50, N-(1,4-dimethyl-1H-indazol-6-yl)-1H-pyrazolo[4,3-b]pyridin-3-amine]	6.49
COCCn1nc(C)c2cc(Nc3n[nH]c4cccnc34)cnc21 [Example 261, 1-(2-methoxyethyl)-3-methyl-N-(1H-pyrazolo[4,3-b]pyridin-3-yl)pyrazolo[3,4-b]pyridin-5-amine]	5.63
CCCCCn1nc(C)c2cc(Nc3n[nH]c4cccnc34)ccc21 [Example 91]	7.72
Cn1nc(C2(C)CC2)c2ccc(Nc3n[nH]c4ncccc34)cc21 [Example 30, N-(1-methyl-3-(1-methylcyclopropyl)-1H-indazol-6-yl)-1H-pyrazolo[3,4-b]pyridin-3-amine]	6.89
Cn1ncc2c(Cl)cc(Nc3n[nH]c4ccccc34)cc21 [Example 9, N-(4-chloro-1-methyl-1H-indazol-6-yl)-1H-indazol-3-amine]	7.19

— patent US10526323B2, “Indazole and azaindazole substituted compounds as mGluR4 allosteric potentiators, compositions, and methods of treating neurological dysfunction” (Vanderbilt University, priority 2015, dated 2020)
